Legend:
[1] = molecular target: human calcitonin receptor (CTR) and RAMP3 (AMY3) (Homo sapiens, UniProt O60896+P30988); assay: Amylin Receptor cAMP Assay II; format: cell-based; settings: COS-7/AMY3 cells, cAMP dynamic 2 kit, read-out: Amylin Receptor cAMP Stimulation Activity: EC50
In short: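 COS-7 cells stably co-expressing human CTR and RAMP3 (AMY3) were treated with 4-fold serially diluted compounds at 2000 cells/well in HBSS with 20 mM HEPES, 0.5 mM IBMX and 0.1% casein for 30 min at 37 °C. cAMP was measured by HTRF (cAMP-d2 plus anti-cAMP cryptate, 1 h at RT) with reads at 665/615 nm.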

[2] = molecular target: T1, human calcitonin receptor (CTR) (Homo sapiens, UniProt P30988); assay: Calcitonin receptor (CTR) cAMP Assay; format: cell-based; settings: COS7-human CTR Clone #2 cells, cAMP dynamic 2 kit; read-out: Calcitonin Receptor cAMP Stimulation Activity: EC50
T1 construct: expressed in transfected cells; host or cells: COS-7 (COS7-human CTR Clone #2)
T1 sequence (P30988 25-474): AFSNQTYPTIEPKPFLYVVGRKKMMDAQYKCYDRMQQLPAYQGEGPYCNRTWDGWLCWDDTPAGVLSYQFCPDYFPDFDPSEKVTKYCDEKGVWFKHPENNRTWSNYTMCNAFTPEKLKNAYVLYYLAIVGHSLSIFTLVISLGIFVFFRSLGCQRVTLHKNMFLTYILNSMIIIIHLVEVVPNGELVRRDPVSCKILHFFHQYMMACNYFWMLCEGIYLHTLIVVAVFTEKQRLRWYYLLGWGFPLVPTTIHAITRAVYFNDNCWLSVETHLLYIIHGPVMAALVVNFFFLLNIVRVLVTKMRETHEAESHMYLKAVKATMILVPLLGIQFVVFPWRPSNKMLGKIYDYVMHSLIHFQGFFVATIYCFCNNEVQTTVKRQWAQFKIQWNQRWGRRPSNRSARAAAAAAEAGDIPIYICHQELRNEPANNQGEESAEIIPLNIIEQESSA
In short: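 COS-7 cells stably expressing human CTR (2000 cells/well) treated with 4-fold serially diluted compounds in HBSS/20 mM HEPES/0.5 mM IBMX/0.1% casein, 30 min at 37° C. cAMP quantified by HTRF (cAMP-d2 plus anti-cAMP cryptate, 1 h RT), fluorescence read at 665 and 615 nm.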

Sequence of human calcitonin receptor (CTR) and RAMP3 (AMY3) (O60896 24-148, one chain of several): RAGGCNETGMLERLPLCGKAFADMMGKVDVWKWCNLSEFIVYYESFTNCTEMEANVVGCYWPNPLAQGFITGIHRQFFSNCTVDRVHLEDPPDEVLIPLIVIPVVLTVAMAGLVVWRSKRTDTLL

Compound | EC50 [1] | EC50 [2]
Cc1nnc(-c2c(CCC34CCC(CC3)OC4)nc3c(c2-c2cc4ccnc(N[C@@H]5CCc6ncccc65)c4s2)S(=O)(=O)CC3C(C)C)o1 (stereo partly drawn) [Compound 116, N—(R)-4-aza-1-indanyl(2-[3-isopropyl-6-(5-methyl-1,3,4-oxadiazol-2-yl)-5-(2-(2-oxabicyclo[2.2.2]oct-4-yl)ethyl}-1,1-dioxo-1λ^6-thia-4-aza-7-indanyl]-1-thia-6-aza-7-indenyl}amine] | 216 nM | 5.02 nM
CC(C)C1CS(=O)(=O)c2c1nc(CCC1CCOCC1)c(-c1nnc(CN(C)C)o1)c2-c1cc2ccnc(N[C@@H]3CCc4ncccc43)c2s1 (stereo partly drawn) [Compound 117, 7-(7-[(R)-4-aza-1-indanylamino]-1-thia-6-aza-2-indenyl}-6-(5-[(dimethylamino)methyl]-1,3,4-oxadiazol-2-yl}-3-isopropyl-5-[2-(tetrahydro-2H-pyran-4-yl)ethyl]-1λ^8-thia-4-aza-1,1-indandione] | 257 nM | 9.93 nM
Cc1ccnc(-c2c(CCC3CCOCC3)nc3c(c2-c2cc4ccnc(N[C@@H]5CCc6ncccc65)c4s2)S(=O)(=O)CC3C(C)C)c1 (stereo partly drawn) [Compound 118, N—(R)-4-aza-1-indanyl(2-(3-isopropyl-6-(4-methyl-2-pyridyl)-1,1-dioxo-5-[2-(tetrahydro-2H-pyran-4-yl)ethyl]-11′-thia-4-aza-7-indanyl}-1-thia-6-aza-7-indenyl)amine] | 449 nM | 72.8 nM
CC(C)C1CS(=O)(=O)c2c1nc(CCC1CCOCC1)c(-c1nnc[nH]1)c2-c1cc2ccnc(N[C@@H]3CCc4ncccc43)c2s1 (stereo partly drawn) [Compound 119, 7-(7-(((R)-6,7-dihydro-5H-cyclopenta[b]pyridin-5-yl)amino)thieno[2,3-c]pyridin-2-yl)-3-isopropyl-5-(2-(tetrahydro-2H-pyran-4-yl)ethyl)-6-(4H-1,2,4-triazol-3-yl)-2,3-dihydrothieno[3,2-b]pyridine 1,1-dioxide] | 68.3 nM | 11.6 nM
CC(C)C1CS(=O)(=O)c2c1nc(CCC1CCOCC1)c(-c1nnc(N)o1)c2-c1cc2ccnc(N[C@@H]3CCc4ncccc43)c2s1 (stereo partly drawn) [Compound 120, 7-{7-[(R)-4-aza-1-indanylamino]-1-thia-6-aza-2-indenyl}-6-(5-amino-1,3,4-oxadiazol-2-yl)-3-isopropyl-5-[2-(tetrahydro-2H-pyran-4-yl)ethyl]-1λ^6-thia-4-aza-1,1-indandione] | 55.3 nM | 10.2 nM
COc1noc(-c2c(CCC3CCOCC3)nc3c(c2-c2cc4ccnc(N[C@@H]5CCc6ncccc65)c4s2)S(=O)(=O)CC3C(C)C)n1 (stereo partly drawn) [Compound 121, N—(R)-4-aza-1-indanyl(2-(3-isopropyl-6-(3-methoxy-1,2,4-oxadiazol-5-yl)-1,1-dioxo-5-[2-(tetrahydro-2H-pyran-4-yl)ethyl]-1λ^6-thia-4-aza-7-indanyl}-1-thia-6-aza-7-indenyl)amine] | 272 nM | 49.2 nM
Cc1nnc(-c2c(CCC3CCOCC3)nc3c(c2-c2ccn4c(Cc5ccc(F)c(F)c5)cnc4c2)S(=O)(=O)CC3C(C)C)o1 (stereo not drawn) [Compound 122, 7-(3-[(3,4-difluorophenyl)methyl]-1,3a-diaza-6-indenyl}-3-isopropyl-6-(5-methyl-1,3,4-oxadiazol-2-yl)-5-[2-(tetrahydro-2H-pyran-4-yl)ethyl]-1λ^6-thia-4-aza-1,1-indandione] | 1540 nM | 49.2 nM
COc1nnc(-c2c(CCC3CCOCC3)nc3c(c2-c2cc4ccnc(N[C@@H]5CCc6ncccc65)c4s2)S(=O)(=O)CC3C(C)C)o1 (stereo partly drawn) [Compound 123, N—(R)-4-aza-1-indanyl(2-(3-isopropyl-6-(5-methoxy-1,3,4-oxadiazol-2-yl)-1,1-dioxo-5-[2-(tetrahydro-2H-pyran-4-yl)ethyl]-1λ^6-thia-4-aza-7-indanyl}-1-thia-6-aza-7-indenyl)amine] | 4380 nM | 135 nM
Cc1nnc(-c2c(CCC3CCOCC3)nc3c(c2-c2cnc4c(ccn4Cc4ccc(C#N)cn4)c2)C(=O)N2CCC[C@@H]32)o1 [Compound 124, 6-[(5-((2S)-10-(5-methyl-1,3,4-oxadiazol-2-yl)-7-oxo-11-[2-(tetrahydro-2H-pyran-4-yl)ethyl]-6,12-diazatricyclo[6.4.0.0,^1I]dodeca-1(12),8,10-trien-9-yl}-1H-1,7-diazainden-1-yl)methyl]nicotinonitrile] | 2700 nM | 216 nM
Cc1nnc(-c2c(CCC3CCOCC3)nc3c(c2-c2ccc4c(c2)oc(=O)n4Cc2ccc(C#N)cn2)C(=O)N2CCC[C@@H]32)o1 [Compound 125, 6-[(6-((2S)-10-(5-methyl-1,3,4-oxadiazol-2-yl)-7-oxo-11-[2-(tetrahydro-2H-pyran-4-yl)ethyl]-6,12-diazatricyclo[6.4.0.0^2,6,]dodeca-1(12),8,10-trien-9-yl}-2-oxo-1,3-benzoxazol-3-yl)methyl]nicotinonitrile] | 174 nM | 6.63 nM
Cc1nnc(-c2c(CCC3CCOCC3)nc3c(c2-c2cnc4c(ccn4Cc4ccc(C#N)c(F)c4)c2)S(=O)(=O)N2CCC[C@@H]32)o1 [Compound 126, 4-[(5-{(2S)-10-(5-methyl-1,3,4-oxadiazol-2-yl)-7,7-dioxo-11-[2-(tetrahydro-2H-pyran-4-yl)ethyl]-7λ^6-thia-6,12-diazatricyclo[6.4.0.0^2,6]dodeca-1(12),8,10-trien-9-yl}-1H-1,7-diazainden-1-yl)methyl]-2-fluorobenzonitrile] | 128 nM | 11.7 nM
Cc1nnc(-c2c(CCC3CCOCC3)nc3c(c2-c2ccc4c(c2)oc(=O)n4Cc2ccc(C#N)cn2)S(=O)(=O)N2CCC[C@@H]32)o1 [Compound 127, 6-[(6-{(2S)-10-(5-methyl-1,3,4-oxadiazol-2-yl)-7,7-dioxo-11-[2-(tetrahydro-2H-pyran-4-yl)ethyl]-7λ^6-thia-6,12-diazatricyclo[6.4.0.0^2,6]dodeca-1(12),8,10-trien-9-yl}-2-oxo-1,3-benzoxazolidin-3-yl)methyl]nicotinonitrile] | 209 nM | 3.86 nM
Cc1nnc(-c2c(CCC3CCOCC3)nc3c(c2-c2cnc4c(ccn4Cc4ccc(C#N)cn4)c2)S(=O)(=O)CC3C(C)C)o1 (stereo not drawn) [Compound 128, 6-[(5-(3-isopropyl-6-(5-methyl-1,3,4-oxadiazol-2-yl)-1,1-dioxo-5-[2-(tetrahydro-2H-pyran-4-yl)ethyl]-1-thia-4-aza-7-indanyl}-1H-1,7-diazainden-1-yl)methyl]nicotinonitrile] | 1540 nM | 120 nM
Cc1nnc(-c2c(CCC3CCOCC3)nc3c(c2-c2ccc4c(c2)oc(=O)n4Cc2ccc(C#N)cn2)S(=O)(=O)CC3C(C)C)o1 (stereo not drawn) [Compound 129, 6-[(6-(3-isopropyl-6-(5-methyl-1,3,4-oxadiazol-2-yl)-1,1-dioxo-5-[2-(tetrahydro-2H-pyran-4-yl)ethyl]-1λ^6-thia-4-aza-7-indanyl}-2-oxo-1,3-benzoxazol-3-yl)methyl]nicotinonitrile] | 211 nM | 4.46 nM
Cc1nnc(-c2c(CCC3CCOCC3)nc3c(c2-c2ccc4nn(Cc5ccc(C#N)c(F)c5)cc4c2)C(=O)N2CCOC[C@@H]32)o1 [Compound 130, 4-[(5-((4aR,9aR)-7-(5-methyl-1,3,4-oxadiazol-2-yl)-9-oxo-6-[2-(tetrahydro-2H-pyran-4-yl)ethyl]-1,2,4,4a-tetrahydro-9H-3-oxa-5,9a-diazafluoren-8-yl}-2H-indazol-2-yl)methyl]-2-fluorobenzonitrile] | 2310 nM | 186 nM

Source: patent US20250051355A1, “COMPOUNDS, COMPOSITIONS, AND METHODS” (ACONCAGUA BIO, INC., priority 2023, published 2025)
